Our source for the TGI values is PubChem BioAssay (NCI).

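Interpolation was linear, between the two tested concentrations surrounding the appropriate level; five concentrations were tested over 48 hours in 96-well plates. Definition used: TGI = concentration required for complete inhibition of growth.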

Some test systems named below: ACHN renal; HCC-2998 colon; RPMI-8226 leukemia; SN12C renal; SNB-75 CNS; UACC-62 melanoma; SR leukemia.
Holding throughout (experiment): growth of human tumour cells (NCI), 48 h

As to `N#Cc1c(N)oc2cc3c(C#N)c(N)oc3cc12`, the TGI with ACHN renal, in the test on HCC-2998 colon, in the test on RPMI-8226 leukemia, in the test on SN12C renal, with SNB-75 CNS and in the test with UACC-62 melanoma was more than 100 µM in each case.
In the case of `O=C(CC1(O)C(=O)Nc2ccccc21)c1cccc(O)c1` (stereo not given), the TGI in the test on ACHN renal, in the test on RPMI-8226 leukemia, in the test on SN12C renal, with SNB-75 CNS and with UACC-62 melanoma was more than 100 µM throughout.
As for `C#Cc1c(C)c(/C=C/C(C)=C\C(=O)OC)n(C)c1C`, the TGI with ACHN renal, in the test on HCC-2998 colon, in the test on RPMI-8226 leukemia, in the test with SN12C renal and in the test on UACC-62 melanoma was more than 100 µM in each case.
As for `CN(C)NC(=O)NC12CC3CC(CC(C3)C1)C2`, the TGI with ACHN renal, with RPMI-8226 leukemia, in the test on SN12C renal, with SNB-75 CNS, with SR leukemia and in the test on UACC-62 melanoma was more than 100 µM throughout.
`O=[N+]([O-])c1ccc(N=P(c2ccccc2)(c2ccccc2)c2ccccc2)n2nnnc12`: the TGI in the test with ACHN renal is more than 100 µM; with RPMI-8226 leukemia it was more than 100 µM; with SN12C renal, more than 100 µM; with SNB-75 CNS, 42.6 µM; in the test on UACC-62 melanoma, more than 100 µM.
As to `COC1=CC(=O)C2(C=C1OC)OC[C@H]1Oc3c(ccc4c3C=CC(C)(C)O4)C(=O)[C@H]12` (stereo not given in full), the TGI with ACHN renal was more than 100 µM; in the test with HCC-2998 colon it was more than 100 µM; in the test with RPMI-8226 leukemia it was 49.3 µM; in the test with SNB-75 CNS it was more than 100 µM; with UACC-62 melanoma, more than 100 µM.
Regarding `COc1cccc(NC(=O)/C(CS(=O)(=O)CCC(C(C)=O)C(C)=O)=N\NC(C)(C)C)c1`, the TGI in the test on ACHN renal, in the test with HCC-2998 colon, in the test with RPMI-8226 leukemia, in the test on SN12C renal, in the test with SNB-75 CNS and in the test on UACC-62 melanoma was more than 100 µM throughout.
Take `Cc1nc2ccccc2c(=O)n1/N=C(\N=Nc1cc(Cl)ccc1Cl)c1ccc(N(C)C)cc1`: the TGI in the test with ACHN renal, in the test on RPMI-8226 leukemia, with SN12C renal and with UACC-62 melanoma was more than 100 µM each time.
In the case of `CCOC(=O)C(Oc1ccc(OC)c2c1C(=O)CCC2)c1ccccc1` (stereo not given), the TGI with ACHN renal, in the test on HCC-2998 colon, in the test on RPMI-8226 leukemia, in the test with SN12C renal and in the test with UACC-62 melanoma was more than 100 µM each time.
`Cc1ccccc1NC(=O)C(=O)C(C(=O)c1ccccc1F)C1OC(=O)c2ccccc21` (stereo not given): the TGI in the test with ACHN renal was more than 100 µM; in the test on HCC-2998 colon, 24.8 µM; with RPMI-8226 leukemia it was 48.3 µM; in the test on SN12C renal, 71.2 µM; in the test on SNB-75 CNS, 31.8 µM.
For `COc1cc(O)c(C(=O)C2Cc3ccccc32)c(OC)c1` (stereo not given), the TGI is more than 100 µM in the test with ACHN renal; more than 100 µM with HCC-2998 colon; 47.4 µM in the test on RPMI-8226 leukemia; more than 100 µM in the test on SN12C renal; more than 100 µM in the test with SNB-75 CNS; more than 100 µM in the test with UACC-62 melanoma.
For `CC(C)(c1ccc(C=O)o1)c1ccc(C(C)(C)c2ccc(C=O)o2)o1`, the TGI in the test with ACHN renal, in the test with HCC-2998 colon and with SR leukemia was more than 100 µM throughout.
Take `O=C1c2c(c3c4ccccc4n(CC4CO4)c3c3[nH]c4ccccc4c23)C(=O)N1Cc1ccccc1` (stereo not given): the TGI in the test on HCC-2998 colon, in the test on RPMI-8226 leukemia, in the test on SN12C renal, in the test with SR leukemia and with UACC-62 melanoma was more than 100 µM in each case.
In the case of `N#Cc1sc2nc3c(c(-c4ccccc4)c2c1N)CCCC3`, the TGI in the test with ACHN renal, in the test on HCC-2998 colon, in the test on RPMI-8226 leukemia, in the test with SN12C renal, with SR leukemia and in the test with UACC-62 melanoma was more than 100 µM in each case.
Consider `CCNC(=O)O/N=C1\CCC2[C@@H]3CC=C4C[C@@H](OC(=O)NCC)CC[C@]4(C)C3CC[C@]12C` (stereo not given in full), for which the TGI in the test on ACHN renal came to 4.96 µM; in the test with HCC-2998 colon it was 17.7 µM; in the test with RPMI-8226 leukemia, 5.69 µM; with SN12C renal, 11.9 µM; in the test on SNB-75 CNS, 7.35 µM; in the test on UACC-62 melanoma it was 10.2 µM.
In the case of `N/N=C1/C(=O)N(c2ccc(Cl)cc2)C(=O)C(=O)C1c1nc2ccccc2s1` (stereo not given), the TGI in the test on ACHN renal, in the test on HCC-2998 colon, with RPMI-8226 leukemia, in the test with SN12C renal, in the test on SNB-75 CNS and in the test on UACC-62 melanoma was more than 100 µM each time.
For `NN=C1/C(=C\c2ccccc2)CCC/C1=C/c1ccccc1`, the TGI with ACHN renal is more than 100 µM; in the test with HCC-2998 colon, more than 100 µM; in the test on RPMI-8226 leukemia, 38 µM; in the test with SN12C renal it was more than 100 µM; in the test with SNB-75 CNS it was more than 100 µM; with UACC-62 melanoma, more than 100 µM.
